# Experimental data published in ChEMBL document CHEMBL4311944, “Discovery of 3-Oxabicyclo[4.1.0]heptane, a Non-nitrogen Containing Morpholine Isostere, and Its Application in Novel Inhibitors of the PI3K-AKT-mTOR Pathway” (J Med Chem, 2019).
# What was measured:
# [1] = Inhibition of PI3K/AKT/mTOR in human lung fibroblasts assessed as reduction in AKT phosphorylation at serine473 residue preincubated for 1 hr followed by PDGF-BB stimulation and measured after 10 mins by electrochemiluminescence method
# [2] = Lipophilicity, logP of the compound by reversed phase column chromatography; type: physicochemical
# [3] = molecular target: T1, Phosphatidylinositol 4,5-bisphosphate 3-kinase catalytic subunit delta isoform (Homo sapiens, UniProt O00329); assay: Inhibition of PI3Kdelta (unknown origin) using PIP2 as substrate preincubated for 15 mins followed by substrate addition and measured after 1 hr by HTRF assay
# T1 sequence (O00329 whole entry): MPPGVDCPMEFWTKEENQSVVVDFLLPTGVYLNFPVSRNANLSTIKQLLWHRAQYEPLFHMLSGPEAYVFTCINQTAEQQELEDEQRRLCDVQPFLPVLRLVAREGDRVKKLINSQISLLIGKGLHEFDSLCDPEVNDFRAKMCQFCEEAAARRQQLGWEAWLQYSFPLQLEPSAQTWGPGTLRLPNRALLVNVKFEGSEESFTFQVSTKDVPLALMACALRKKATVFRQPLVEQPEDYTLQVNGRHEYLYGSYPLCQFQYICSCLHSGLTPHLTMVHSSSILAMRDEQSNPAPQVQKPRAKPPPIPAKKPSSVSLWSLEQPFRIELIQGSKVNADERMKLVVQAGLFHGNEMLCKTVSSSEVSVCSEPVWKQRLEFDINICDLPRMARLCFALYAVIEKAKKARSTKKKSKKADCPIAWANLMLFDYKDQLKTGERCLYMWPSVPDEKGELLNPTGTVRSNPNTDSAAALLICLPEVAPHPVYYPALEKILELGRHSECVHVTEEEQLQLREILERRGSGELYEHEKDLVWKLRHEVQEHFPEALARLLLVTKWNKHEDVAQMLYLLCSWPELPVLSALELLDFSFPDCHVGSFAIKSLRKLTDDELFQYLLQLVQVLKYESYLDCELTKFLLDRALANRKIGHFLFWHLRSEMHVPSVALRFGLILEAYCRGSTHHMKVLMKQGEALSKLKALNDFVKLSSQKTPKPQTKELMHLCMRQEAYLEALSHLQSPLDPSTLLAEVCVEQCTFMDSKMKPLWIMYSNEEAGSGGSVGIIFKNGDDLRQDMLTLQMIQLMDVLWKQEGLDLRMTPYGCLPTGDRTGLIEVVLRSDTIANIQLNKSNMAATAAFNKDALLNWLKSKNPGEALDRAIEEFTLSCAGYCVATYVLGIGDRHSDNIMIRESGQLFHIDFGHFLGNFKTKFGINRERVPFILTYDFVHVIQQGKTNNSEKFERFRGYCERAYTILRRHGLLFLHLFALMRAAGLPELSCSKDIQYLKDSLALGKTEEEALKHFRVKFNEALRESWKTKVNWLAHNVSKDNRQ
# [4] = Kinetic solubility of the compound in pH 7.4 phosphate buffered saline measured after 1 hr; type: physicochemical; conditions: read-out: Kinetic_solubility
# [5] = molecular target: Phosphatidylinositol 4,5-bisphosphate 3-kinase catalytic subunit alpha isoform (Homo sapiens, UniProt P42336)
# Description: Inhibition of PI3Kalpha (unknown origin) using PIP2 as substrate preincubated for 15 mins followed by substrate addition and measured after 1 hr by HTRF assay
# [6] = Inhibition of ligand binding to mTORC1/mTORC2 in human HuT78 cells after 2 hrs by kinobead competition binding assay; type: cell-based
# Chain of Phosphatidylinositol 4,5-bisphosphate 3-kinase catalytic subunit alpha isoform (P42336 whole entry, canonical isoform): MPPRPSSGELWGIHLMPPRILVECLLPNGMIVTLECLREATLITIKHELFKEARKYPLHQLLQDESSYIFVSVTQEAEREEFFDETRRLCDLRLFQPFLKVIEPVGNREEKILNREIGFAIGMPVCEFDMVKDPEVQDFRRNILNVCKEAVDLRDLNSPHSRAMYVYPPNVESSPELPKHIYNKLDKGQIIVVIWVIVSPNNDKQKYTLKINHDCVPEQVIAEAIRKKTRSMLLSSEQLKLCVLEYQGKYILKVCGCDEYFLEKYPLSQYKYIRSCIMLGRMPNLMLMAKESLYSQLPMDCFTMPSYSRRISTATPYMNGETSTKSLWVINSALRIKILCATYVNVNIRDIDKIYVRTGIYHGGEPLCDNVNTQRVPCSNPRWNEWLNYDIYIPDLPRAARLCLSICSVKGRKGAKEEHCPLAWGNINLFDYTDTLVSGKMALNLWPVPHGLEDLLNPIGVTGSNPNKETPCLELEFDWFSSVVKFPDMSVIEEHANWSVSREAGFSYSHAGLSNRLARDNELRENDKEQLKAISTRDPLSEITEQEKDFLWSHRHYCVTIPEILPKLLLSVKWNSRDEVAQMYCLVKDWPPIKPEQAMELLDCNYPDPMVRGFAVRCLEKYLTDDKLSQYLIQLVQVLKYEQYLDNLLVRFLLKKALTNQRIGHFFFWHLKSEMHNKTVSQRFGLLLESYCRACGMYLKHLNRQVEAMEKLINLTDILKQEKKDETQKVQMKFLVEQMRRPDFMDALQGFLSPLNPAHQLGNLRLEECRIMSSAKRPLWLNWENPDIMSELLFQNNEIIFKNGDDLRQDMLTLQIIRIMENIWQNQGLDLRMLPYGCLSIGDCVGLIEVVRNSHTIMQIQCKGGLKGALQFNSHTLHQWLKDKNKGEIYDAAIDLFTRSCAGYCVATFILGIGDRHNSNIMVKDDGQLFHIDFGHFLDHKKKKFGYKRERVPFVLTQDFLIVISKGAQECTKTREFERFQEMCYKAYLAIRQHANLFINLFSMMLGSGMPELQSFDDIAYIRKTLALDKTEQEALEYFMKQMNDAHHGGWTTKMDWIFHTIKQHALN
SMILES,IC50 [1],logP [2],IC50 [3],solubility kinetic at 1 h [4],IC50 [5],pIC50 [6]
CCNC(=O)Nc1ccc(-c2nc(CS(C)(=O)=O)cc(N3CCOC[C@@H]3C)n2)cc1,0.316 µM,3.2,20 µM,0.212 mg/mL,15.8 µM,7.1
CCNC(=O)Nc1ccc(-c2nc(CS(C)(=O)=O)cc(N3CCOCC3)n2)cc1,1.26 µM,2.7,,,,7.3
CNCC(=O)Nc1ccc(-c2nc(N3CCOC[C@@H]3C)cc(C(C)(C)S(C)(=O)=O)n2)cc1,0.0501 µM,4.1,1.58 µM,0.198 mg/mL,15.8 µM,8
C[C@H]1COCCN1c1cc(CS(C)(=O)=O)nc(-c2cccc(O)c2)n1,2.51 µM,3.3,1 µM,0.113 mg/mL,1 µM,6.7
CNCC(=O)Nc1ccc(-c2nc(C(C)(C)S(C)(=O)=O)cc([C@@]34CCOC[C@@H]3C4)n2)cc1,0.158 µM,4.3,1.26 µM,0.257 mg/mL,25.1 µM,7.3
CNCC(=O)Nc1ccc(-c2nc(CS(C)(=O)=O)cc(N3CCOC[C@@H]3C)n2)cc1,0.501 µM,2.6,12.6 µM,0.09 mg/mL,25.1 µM,7.7
C[C@H]1COCCN1c1ccnc(-c2cccc(O)c2)n1,3.98 µM,3.3,1 µM,0.119 mg/mL,1.58 µM,5.7
CS(=O)(=O)Cc1cc([C@@]23CCOC[C@@H]2C3)nc(-c2cccc(O)c2)n1,5.01 µM,3.7,3.98 µM,0.145 mg/mL,7.94 µM,5.9
Oc1cccc(-c2nccc(C3CCOCC3)n2)c1,20 µM,3.3,7.94 µM,0.1 mg/mL,15.8 µM,4.5
CC(C)(c1cc([C@]23CCOC[C@H]2C3)nc(-c2cccc(O)c2)n1)S(C)(=O)=O,1.26 µM,4.8,10 µM,0.135 mg/mL,15.8 µM,5.5
CCNC(=O)Nc1ccc(-c2nc(CS(C)(=O)=O)cc([C@]34CCOC[C@H]3C4)n2)cc1,0.501 µM,3.6,7.94 µM,0.096 mg/mL,> 31.6 µM,7
CCNC(=O)Nc1ccc(-c2nccc(C34CCOCC3C4)n2)cc1 (stereo not drawn),3.16 µM,4,5.01 µM,0.111 mg/mL,12.6 µM,5.8
CC(C)(c1cc([C@@]23CCOC[C@@H]2C3)nc(-c2cccc(O)c2)n1)S(C)(=O)=O,5.01 µM,4.8,7.94 µM,0.148 mg/mL,10 µM,< 5.4
CCNC(=O)Nc1ccc(-c2nc(C(C)(C)S(C)(=O)=O)cc([C@]34CCOC[C@H]3C4)n2)cc1,0.0631 µM,4.7,25.1 µM,0.074 mg/mL,> 31.6 µM,6.9
CCNC(=O)Nc1ccc(-c2nccc(N3CCOCC3)n2)cc1,3.98 µM,2.7,10 µM,0.109 mg/mL,12.6 µM,6.5
CCNC(=O)Nc1ccc(-c2nc(CS(C)(=O)=O)cc([C@@]34CCOC[C@@H]3C4)n2)cc1,1.58 µM,3.6,25.1 µM,0.077 mg/mL,> 31.6 µM,6.1

SMILES,IC50 [1],logP [2],IC50 [3],solubility kinetic at 1 h [4],IC50 [5],pIC50 [6]
C[C@H]1COCCN1c1cc(C(C)(C)S(C)(=O)=O)nc(-c2cccc(O)c2)n1,1.26 µM,4.4,3.16 µM,0.121 mg/mL,3.16 µM,5.7
Oc1cccc(-c2nccc(C34CCOCC3C4)n2)c1 (stereo not drawn),7.94 µM,4.1,3.98 µM,0.102 mg/mL,6.31 µM,4.8
Oc1cccc(-c2nccc(N3CCOCC3)n2)c1,2 µM,2.7,0.251 µM,0.107 mg/mL,0.501 µM,5.9
CCNC(=O)Nc1ccc(-c2nc(C(C)(C)S(C)(=O)=O)cc([C@@]34CCOC[C@@H]3C4)n2)cc1,0.158 µM,4.7,15.8 µM,0.078 mg/mL,25.1 µM,6.6
CCNC(=O)Nc1ccc(-c2nccc(C3=CCOCC3)n2)cc1,3.98 µM,3.6,15.8 µM,0.024 mg/mL,20 µM,6
Oc1cccc(-c2nccc(C3=CCOCC3)n2)c1,3.16 µM,3.6,1.26 µM,0.113 mg/mL,3.16 µM,5.7
Oc1cccc(-c2nccc([C@]34CCOC[C@H]3C4)n2)c1,7.94 µM,4,1.26 µM,0.141 mg/mL,2.51 µM,5.1
Oc1cccc(-c2nccc([C@@]34CCOC[C@@H]3C4)n2)c1,10 µM,4,3.16 µM,0.123 mg/mL,6.31 µM,< 3
CC(C)(c1cc([C@@]23CCOC[C@@H]2C3)nc(-c2ccc(NC(=S)NCCO)cc2)n1)S(C)(=O)=O,0.0794 µM,3.9,25.1 µM,0.145 mg/mL,7.94 µM,8.2
CNCC(=O)Nc1ccc(-c2nc(CS(C)(=O)=O)cc([C@@]34CCOC[C@@H]3C4)n2)cc1,1.26 µM,3.1,15.8 µM,0.167 mg/mL,> 31.6 µM,7.1
CNCC(=O)Nc1ccc(-c2nc(CS(C)(=O)=O)cc([C@]34CCOC[C@H]3C4)n2)cc1,0.794 µM,3.1,> 31.6 µM,0.158 mg/mL,> 31.6 µM,7.4
CCNC(=O)Nc1ccc(-c2nc(N3CCOC[C@@H]3C)cc(C(C)(C)S(C)(=O)=O)n2)cc1,0.0501 µM,4.4,7.94 µM,0.13 mg/mL,7.94 µM,7.3
CS(=O)(=O)Cc1cc([C@]23CCOC[C@H]2C3)nc(-c2cccc(O)c2)n1,3.16 µM,3.7,15.8 µM,0.075 mg/mL,20 µM,5.8
CS(=O)(=O)Cc1cc(C2=CCOCC2)nc(-c2cccc(O)c2)n1,0.794 µM,3.3,1.58 µM,0.027 mg/mL,6.31 µM,6.4
CNCC(=O)Nc1ccc(-c2nc(C(C)(C)S(C)(=O)=O)cc([C@]34CCOC[C@H]3C4)n2)cc1,0.1 µM,4.3,12.6 µM,0.217 mg/mL,> 31.6 µM,7.6
